Results on 1 compound are retold here after US11584726B2 (Beijing Foreland Pharma Co., Ltd., priority 2017, dated 2023).

The subject of data set [1] is CD19 on peripheral blood cell. The data set is described as follows: Effects on the expression of CD19 on peripheral blood cell in mice (flow cytometry). The class given is in vivo, mice (C57 BL/6). Conditions: intragastric, once a day for four days, mouse peripheral blood. How it is done:
(§1) FITC Rat Anti-Mouse CD8a: BD, Cat. #553030.
(§2) PE Rat Anti-Mouse CD4: BD, Cat. #557308.
(§3) APC Rat Anti-Mouse CD19: BD, Cat. #561738.
(§4) The compounds used in the test were prepared by the chemical department of Beijing Forelandpharma Co. Ltd.
(§5) Routs of administration: intragastric administration, once a day, and continuous administration for four days.
(§6) After the administration, supraorbital venous blood was collected from the mouse, added to an EP tube (1.5 ml) containing an anticoagulant, and kept on the ice. The resulting mixture was transferred to a test tube, centrifuged at 4° C. and 1200 rpm/min for 5 min, removed with the supernatant liquid, added with a lysate, processed with cell lysis on the ice for 5 min, then pre-dyed, added with diluted antibody, and incubated away from light for 30 min. After the incubation, the resulting mixture was washed, removed with the supernatant liquid, added with stationary liquid, and kept in a refrigerator at 4° C. away from light for the test of flow cytometry.
A general note: In flow cytometry, cells or beads pass a laser one at a time.

The nature of data set [2]: Stability observation on the isolated solid. The class given is physicochemical. Conditions: white solid; stored at low temperature under the protection of nitrogen. How it is done:
0.426 g (0.727 mmol) of intermediate 80 was dissolved in 16 ml of methanol, added with 0.01 ml of concentrated hydrochloric acid, purged with nitrogen to remove air, followed by the addition of 0.09 g of palladium 10% on carbon, purged with hydrogen, and reacted overnight at 95° C. The reaction was monitored by TLC (DCM:MeOH=10:1). After the reaction was completed, the resulting mixture was filtered, and the filter cake was washed with hot methanol. The filtrate was concentrated by rotary evaporation, added with 1% sodium hydrate solution to adjust pH to 9-10. […] Yield: 8.5%. LC-MS: 406 [M+1]^+, tR=1.328 min. A corresponding hydrogenchloride salt was obtained by mixing the solid with a solution of hydrogen chloride in methanol under stirring.

In data set [3] the test system is CD4 on peripheral blood cell. The data set is described as follows: Effects on the expression of CD4 on peripheral blood cell in mice (flow cytometry). The data set is classed as in vivo, mice (C57 BL/6). As to conditions: intragastric, once a day for four days, mouse peripheral blood. How it is done:
as §1, §2, §3, §4, §5, §6

The test system of data set [4] is CD8 on peripheral blood cell. Kind of data set: Effects on the expression of CD8 on peripheral blood cell in mice (flow cytometry). The class given is in vivo, mice (C57 BL/6). As to conditions: intragastric, once a day for four days, mouse peripheral blood. How it is done:
as §1, §2, §3, §4, §5, §6

Regarding `N[C@@]1(CO)CCc2ccc(-c3nnc(-c4ccc(O)c(C(F)(F)F)c4)o3)cc2C1` [Example 10, (S)-4-(5-(7-amino-7-(hydroxymethyl)-5,6,7,8-tetrahydronaphthalen-2-yl)-1,3,4-oxadiazol-2-yl)-2-(trifluoromethyl)phenol], the “CD19 (%)” value in data set [1] (1 mg/kg) was determined as 44.3%; in data set [1] (5 mg/kg), 35.7%. Also, in data set [2], the “stability of the solid” value is listed as “prone to oxidative degradation”. Further, the “CD4 (%)” value in data set [3] (1 mg/kg) was determined as 31.1%; in data set [3] (5 mg/kg), 27.7%. In addition, the “CD8 (%)” value was determined as 15.3% in data set [4] (1 mg/kg) and 14.0% in data set [4] (5 mg/kg).
